Results published in PubChem BioAssay AID1996.
Converted amounts (≈) assume the structure as drawn.

settings: buffer; pH 7.4; 200.0 µM

| Compound | solubility kinetic [µg/mL] |
| --- | --- |
| O=C(Nc1ccccc1)OCCCCCOC(=O)Nc1ccccc1 | < 0.4 |
| Cc1ncc([N+](=O)[O-])n1Cc1ccccc1F | > 35.3 |
| N#C/C(=C\c1cccnc1)c1ccc([N+](=O)[O-])cc1 | 13.1 (≈ 52.1 µM) |
| COc1ccc(NS(=O)(=O)c2cc(NC(=O)COc3ccc(OC)cc3)ccc2N2CCOCC2)cc1 | 3.4 (≈ 6.44 µM) |
| Cc1ccc(C)c(OCC(=O)O/N=C(\N)c2cccnc2)c1 | 11.2 (≈ 37.4 µM) |
| O=c1c2sc(-c3ccccc3)cc2nc2n1CCCCC2 | 29.5 (≈ 99.5 µM) |
| O=[N+]([O-])c1ccc(-n2ccnc2)cc1 | > 28.4 |
| Cc1ccc(S(=O)(=O)N2CCN(C(C)CC(=O)O)CC2)cc1 (stereo not given) | 32.9 (≈ 101 µM) |
| CN1C(=O)/C(=C2\SC(=S)N(CCCCCC(=O)O)C2=O)c2ccccc21 | 6 (≈ 15.4 µM) |
| O=[N+]([O-])c1ccc(SCCc2ccncc2)cc1 | 31.5 (≈ 121 µM) |
| Cc1ccc(-c2nc(CNC(=O)c3cc(C)on3)cs2)cc1 | 35.4 (≈ 113 µM) |
| COc1cccc(CNc2nccs2)c1O | > 35.4 |
| COc1ccc(C(=O)N2CCCN(C)CC2)c(OC)c1 | 36.5 (≈ 131 µM) |
| C=C(C)CN1C(=O)C(=O)N(CC(=C)C)C1=O | > 33.3 |
| O=C(CSc1nnc(C2CC2)n1-c1ccccc1)NC1CCS(=O)(=O)C1 (stereo not given) | > 58.9 |
| Cc1cccc(C(C)C)c1NS(=O)(=O)c1cn(C)nc1C | > 46.1 |
| CCOC(=O)C1CCN(C(=O)COc2ccc(C(=O)c3ccccc3)cc2)CC1 | 36.6 (≈ 92.6 µM) |
| COc1ccc(/C=C/C(=O)O)cc1S(=O)(=O)NCC1CCCO1 (stereo not given) | 41.3 (≈ 121 µM) |
| Cl.OCCNCCNCc1ccccc1OCc1ccccc1 | > 50.5 |
| O=C(Nc1ccncc1)OCc1ccccc1 | > 34.2 |
| Cc1cc(=O)c(C(=O)O)nn1-c1ccc(Cl)cc1 | > 39.7 |
| COc1cccc(OC)c1C(=O)NC(=O)Nc1c(F)cc(F)cc1F | 5.4 (≈ 15.2 µM) |
| CC(Sc1nnc(C(F)(F)F)n1C)C(=O)Nc1ccc(N2CCOCC2)cc1 (stereo not given) | > 62.3 |
| COc1ccc(S(=O)(=O)N2CC(=O)Nc3ccccc32)cc1F | > 50.5 |

| Compound | solubility kinetic [µg/mL] |
| --- | --- |
| CC(C)c1ccc(NC(=S)N2CCCC2)cc1 | > 37.3 |
| COc1ccc(CNC(=S)NCc2ccc(Cl)cc2)cc1OC | 35 (≈ 99.8 µM) |
| Cc1cc(NC(=O)CSc2nccn2-c2cccc(F)c2)no1 | > 49.9 |
| N#Cc1c(NC(=O)CCC(=O)O)sc2c1CCCCC2 | > 43.9 |
| O.S=c1nc[nH]c2nc[nH]c12 | > 25.5 |
| CC(C)CNS(=O)(=O)c1cc2c3c(c1)CC(=O)N3CCC2 | 45.8 (≈ 149 µM) |
| Cc1cc(C)c(S(=O)(=O)c2cccc(C)c2C)c(=O)[nH]1 | > 43.7 |
| O=C(CCSc1ccc(Cl)cc1)NCc1ccccn1 | 40.8 (≈ 133 µM) |
| CC(C)(C)c1cc(CCC(=O)N2CCCC2)cc(C(C)(C)C)c1O | 43.8 (≈ 132 µM) |
| CCOc1ccccc1NC(=S)N1CCCc2ccccc21 | 10.5 (≈ 33.6 µM) |
| Cc1cccc(C(C)C)c1NC(=O)c1cc2ccccc2o1 | 6.1 (≈ 20.8 µM) |
| O=C(COc1ccc(C(=O)O)cc1)Nc1cccc(C(F)(F)F)c1 | > 50.9 |
| O=C(c1ccc(Sc2ccccc2)c([N+](=O)[O-])c1)N1CCOCC1 | 49.9 (≈ 145 µM) |
| COc1cc(CO)ccc1Oc1nc2ccccc2n2cnnc12 | > 48.3 |
| O=C(Nc1c(-c2ccccc2)nc2ccccn12)c1ccccc1 | 38.7 (≈ 124 µM) |
| CCCNC(=O)c1ccc(COc2cccc3ccccc23)o1 | 15.8 (≈ 51.1 µM) |
| Cl.N#C/C(=C/c1cc(Cl)c(O)c(Cl)c1)C(=O)N1CCCCC1 | > 54.2 |
| COc1ccc(NC(=O)CCCCC(=O)Nc2ccc(OC)cc2OC)c(OC)c1 | 12.4 (≈ 29.8 µM) |
| CC(O)CNCCNCc1cccs1.Cl (stereo not given) | > 43.1 |
| CC(=O)N1CCc2cc(S(=O)(=O)N3CCCCC3C)ccc21 (stereo not given) | 9.4 (≈ 29.2 µM) |
| C1CNC(C23CC4CC(CC(C4)C2)C3)=N1 | > 30.6 |
| N#Cc1c(N)nc2c(c1-c1ccc(F)cc1)CCC2 | 3.7 (≈ 14.6 µM) |
| CCC(C(=O)NCCc1c[nH]c2ccc(C)cc12)c1ccccc1 (stereo not given) | 26.4 (≈ 82.4 µM) |
| COc1cc(NC(=O)Cc2ccccc2)nc(OC)n1 | > 41 |

| Compound | solubility kinetic [µg/mL] |
| --- | --- |
| Nc1nc(-c2ccc3ccccc3c2)cs1 | 11.8 (≈ 52.1 µM) |
| Cc1cc(C(=O)OCC(=O)NCc2ccccc2)c2ccccc2n1 | 13.9 (≈ 41.6 µM) |
| O=C(/C=C/c1ccco1)Nc1scc(-c2ccccc2)c1C(=O)O | 48.9 (≈ 144 µM) |
| COCCN=C(NS(=O)(=O)c1cccs1)c1ccccc1Cl | > 53.8 |
| Cc1cnc(NS(=O)(=O)c2ccc(Cl)cc2)c(Br)c1 | > 54.2 |
| O=C(COC(=O)c1cncc(Br)c1)NC1CCCC1 | > 49.1 |
| Cc1ccc(NC(=O)C/C(N)=N/OC(=O)c2ccccc2)cc1 | 2.2 (≈ 7.07 µM) |
| Clc1ccc(N2CCN(Cc3ccc(Br)o3)CC2)cc1 | 1.4 (≈ 3.94 µM) |
| Cc1ccc(S(=O)(=O)c2c(C)cc(C)nc2N2CCCC2)cc1 | 1.2 (≈ 3.63 µM) |
| COc1ccc(N2C(=O)C(F)(F)C2c2cccc(F)c2)cc1 (stereo not given) | < 0.7 |
| COc1ccc2c(c1)nc(CN1CCN(CCO)CC1)n2C | > 45.7 |
| O=C(c1cc2cccc([N+](=O)[O-])c2oc1=O)N1CCOCC1 | 40.6 (≈ 133 µM) |
| CC1CCCCC1NC(=O)COC(=O)COc1ccccc1F (stereo not given) | 35.3 (≈ 109 µM) |
| COc1ccc(S(=O)(=O)N2CCOCC2)cc1NC(=O)COC(=O)Cc1ccccc1 | 51.7 (≈ 115 µM) |
| N#CC1=C(N)Oc2cc(N)ccc2C1c1ccc(F)cc1F (stereo not given) | > 44.9 |
| NC(=O)Nc1ccc(C(=O)OCC(=O)Nc2ccc(Cl)cn2)cc1 | 5.1 (≈ 14.6 µM) |
| NC(=O)CSc1nc(C2CC2)nc2sc3c(c12)CCCC3 | < 0.2 |
| O=C(Nc1cccc(S(=O)(=O)N2CCOCC2)c1)c1ccc(=O)[nH]c1 | > 54.5 |
| COc1ccc(CC(=O)O/N=C(\N)c2ccccn2)cc1 | > 42.8 |
| O=C(Cc1cccs1)N1CCN=C1SCc1ccccc1Cl | 6.6 (≈ 18.8 µM) |
| CC1CN(C(=O)COc2ccc3ccccc3c2)CC(C)O1 (stereo not given) | > 44.9 |
| CN1CCCN(C(=O)c2ccc(Cl)s2)CC1 | > 38.8 |
| S=C(NC1CC1)SCc1ccco1 | 10.3 (≈ 48.3 µM) |
| COc1ccc(N2C(=O)CSC2c2ccccc2)cc1 (stereo not given) | 42.3 (≈ 148 µM) |

| Compound | solubility kinetic [µg/mL] |
| --- | --- |
| Cc1ccc(NC(=O)c2cc3cc(OC(F)(F)F)ccc3[nH]2)cc1 | < 0.4 |
| CCOC(=O)C1(Cc2cccc(F)c2)CCN(C(=O)c2ccoc2C)CC1 | 52.2 (≈ 140 µM) |
| O=C(Cc1ccc(Br)cc1)Nc1ccc(Cl)cc1 | < 0.7 |
| Cc1ccc(NC(=O)c2cnc3ccccc3n2)cc1C | 0.3 (≈ 1.08 µM) |
| COC(=O)CNC(=O)C12CC3CC(C1)CC(c1ccc(C)cc1)(C3)C2 | 6.5 (≈ 19 µM) |
| CC1CCCN(S(=O)(=O)c2ccc3oc(=O)ccc3c2)C1 (stereo not given) | 20 (≈ 65.1 µM) |
| C=CCN1C(=O)/C(=C2/Sc3ccccc3N2CC)SC1=S | < 0.4 |
| Cl.O=C(Cc1ccccc1)NCCN1CCCC1 | > 40.3 |
| CCOC(=O)c1c(/N=C/c2ccc(OC)cc2O)sc2c1CCN(C)C2 | 37 (≈ 98.8 µM) |
| COc1ccc(Cl)cc1NC(=O)Nc1cnccn1 | 0.4 (≈ 1.44 µM) |
| ClCC1CN(Cc2ccccc2Cl)CCO1 (stereo not given) | 17.3 (≈ 66.5 µM) |
| Cc1cnc(C(=O)NCCc2ccc(C(F)(F)F)cc2)cn1 | 11.9 (≈ 38.5 µM) |
| CCN(CC)c1ccc(NC(=S)Nc2ccc(F)cc2)cc1 | 9 (≈ 28.4 µM) |
| CCCCCC(=O)O/N=C(\C)c1ccn(S(=O)(=O)c2ccccc2)c1 | 1.3 (≈ 3.59 µM) |
| COc1ccc(Cl)cc1N=Cc1c(O)n(C)c(=O)n(C)c1=O | 2 (≈ 6.18 µM) |
| O=C(O)Cn1cnc2scc(-c3ccccc3)c2c1=O | > 42.9 |
| CCCOc1ccc(/C=C/c2c([N+](=O)[O-])c(=O)n(C)c(=O)n2C)cc1 | < 0.2 |
| Cc1cc(C(=O)COC(=O)Cc2ccc(Cl)cc2)c(C)n1C | 21.3 (≈ 66.6 µM) |
| Cc1nc2ccccc2c(=O)n1NC(=O)c1ccccc1F | > 44.6 |
| C[N+](C)(C)CCCCCC[N+](C)(C)C.[Br-] | > 54.3 |
| O=c1[nH]cnc2c1C(c1ccccc1)c1c(nc[nH]c1=O)O2 | > 44.1 |
| O=C(Nc1cccc2ncccc12)c1ccccc1F | 39.7 (≈ 149 µM) |
| COc1ccc(N=Cc2c(O)n(C)c(=O)[nH]c2=O)cc1 | 2.2 (≈ 7.99 µM) |
| Cn1cnnc1SCC(=O)c1ccc2c(c1)NC(=O)CO2 | > 45.6 |

| Compound | solubility kinetic [µg/mL] |
| --- | --- |
| Cc1ccc(NC(=O)N(CCC#N)Cc2ccccc2)cc1 | > 44 |
| COc1cc(OC)cc(C(=O)N[C@H](C(=O)OCC(=O)c2c[nH]c3ccccc23)C(C)C)c1 | 3.8 (≈ 8.67 µM) |
| Cc1cccc(NC(=O)NC2CCCc3ccccc32)c1 (stereo not given) | 0.7 (≈ 2.5 µM) |
| COc1ccc(C(=O)O/N=C(\N)c2ccccn2)cc1[N+](=O)[O-] | 2.6 (≈ 8.22 µM) |
| CCCOc1ccc(C2=CSC3=NCCN23)cc1.Cl | 37.4 |
| OCC1(CCOc2ccccc2)CCN(Cc2ccncc2)CC1 | 39 (≈ 119 µM) |
| COc1ccccc1N1C(=O)S/C(=C\c2ccc(C)s2)C1=O | < 0.7 |
| CC(C1CC1)N(Cc1ccccc1)C(=S)Nc1ccccc1Cl (stereo not given) | 1.1 (≈ 3.19 µM) |
| CC1CCCCN1CC(O)c1c[nH]c2ccccc12 (stereo not given) | > 38.8 |
| CC1CC(=O)Nc2ccccc2N1S(=O)(=O)c1cccs1 (stereo not given) | 17 (≈ 52.7 µM) |
| Cc1ccc(NC(=O)c2ccc3nsnc3c2)c(C)c1 | 1.5 (≈ 5.29 µM) |
| O=C(NCc1ccco1)/C(=C/c1ccco1)NC(=O)c1ccccc1 | 41.5 (≈ 123 µM) |
| OC(CN1CCN(c2cccc(Cl)c2)CC1)c1ccc(F)cc1 (stereo not given) | 12.2 (≈ 36.4 µM) |
| CC(C)(C)c1ccc(C(=O)NC(=O)COC(=O)c2ccc(Br)o2)cc1 | 12.5 (≈ 30.6 µM) |
| Cn1c(C(=O)N[C@@H](C(=O)O)c2ccccc2)cc2cc(Cl)ccc21 | > 51.4 |
| Cc1cc(C)c(C#N)c(OCC(=O)Nc2ccccc2)n1 | 31.7 (≈ 113 µM) |
| CSCCC(NS(=O)(=O)c1ccc(C)cc1C)C(=O)Nc1cccnc1 (stereo not given) | > 59 |
| CC(NCc1ccccc1O)c1ccccc1 (stereo not given) | > 34.1 |
| CCCNC(=O)c1cc(-c2ccc3c(c2)OCO3)on1 | 2.9 (≈ 10.6 µM) |
| O=C(Nc1ccnc(-c2ccncc2)n1)c1ccccc1Cl | 0.9 (≈ 2.9 µM) |
| CC1CCN(CC(=O)NC2CCCCC2)CC1.Cl | 37.4 |
| COc1ccc(NC(=O)NC(=O)c2ccccc2)cc1 | 1.3 (≈ 4.81 µM) |
| O=C(/C=C/c1cccc(Cl)c1)NCc1ccccc1 | 3.4 (≈ 12.5 µM) |
| O=c1cc(CN2CCN(S(=O)(=O)c3cccc(Cl)c3)CC2)c2ccc(O)cc2o1 | 13.3 (≈ 30.6 µM) |
